Assays:
Test in all cases: BioPrint Profile Panel
Type in all cases: binding
5-HT1A = molecular target: T1, 5-HT1A (Homo sapiens, UniProt P08908); settings: Agonist, Receptor, read-out: % of specific inhibition
T1 construct: purchased Eurofins Discovery (Cerep) BioPrint Profile Panel
Description: (§1) The BioPrint® Profile Panel service offered by Eurofins Discovery (Poitiers, France) was chosen to perform selectivity analysis.

5-HT1D = molecular target: T2, 5-HT1D (Rattus norvegicus, UniProt P28565); settings: Agonist, Receptor, read-out: % of specific inhibition
T2 construct: purchased Eurofins Discovery (Cerep) BioPrint Profile Panel
Description: as §1

5-HT2A = molecular target: T3, 5-HT2A (Homo sapiens, UniProt P28223); settings: Agonist, Receptor, read-out: % of specific inhibition
T3 construct: purchased Eurofins Discovery (Cerep) BioPrint Profile Panel
T3 sequence (P28223 whole entry): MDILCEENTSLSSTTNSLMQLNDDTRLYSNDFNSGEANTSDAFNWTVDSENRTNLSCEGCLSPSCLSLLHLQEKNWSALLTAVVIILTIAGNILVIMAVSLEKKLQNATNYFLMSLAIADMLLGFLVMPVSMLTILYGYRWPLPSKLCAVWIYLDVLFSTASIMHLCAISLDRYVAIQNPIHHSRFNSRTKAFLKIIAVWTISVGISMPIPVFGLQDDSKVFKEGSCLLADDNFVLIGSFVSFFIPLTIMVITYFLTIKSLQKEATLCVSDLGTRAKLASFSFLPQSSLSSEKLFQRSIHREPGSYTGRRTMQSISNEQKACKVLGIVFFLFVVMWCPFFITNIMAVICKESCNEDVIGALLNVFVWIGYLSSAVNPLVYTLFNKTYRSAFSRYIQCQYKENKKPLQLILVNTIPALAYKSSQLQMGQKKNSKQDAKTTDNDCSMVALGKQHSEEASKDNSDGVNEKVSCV
Description: as §1

5-HT2B = molecular target: T4, 5-HT2B (Homo sapiens, UniProt P41595); settings: Agonist, Receptor
T4 construct: purchased Eurofins Discovery (Cerep) BioPrint Profile Panel
T4 sequence (P41595 whole entry): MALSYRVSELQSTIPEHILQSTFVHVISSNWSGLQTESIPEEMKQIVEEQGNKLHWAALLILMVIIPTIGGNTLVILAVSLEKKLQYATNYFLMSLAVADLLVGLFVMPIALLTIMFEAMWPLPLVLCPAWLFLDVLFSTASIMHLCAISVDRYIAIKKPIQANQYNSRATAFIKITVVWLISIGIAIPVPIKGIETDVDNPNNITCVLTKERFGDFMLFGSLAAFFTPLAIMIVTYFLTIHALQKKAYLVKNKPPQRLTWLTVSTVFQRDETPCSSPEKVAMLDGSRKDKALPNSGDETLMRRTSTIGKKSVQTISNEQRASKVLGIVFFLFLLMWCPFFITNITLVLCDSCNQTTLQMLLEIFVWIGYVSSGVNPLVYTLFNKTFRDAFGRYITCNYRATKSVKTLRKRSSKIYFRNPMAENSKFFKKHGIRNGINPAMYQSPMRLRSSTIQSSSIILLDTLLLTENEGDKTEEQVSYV
Description: as §1

5-HT2C = molecular target: T5, 5-HT2C (Homo sapiens, UniProt P28335); settings: Agonist, Receptor, read-out: % of specific inhibition
T5 construct: purchased Eurofins Discovery (Cerep) BioPrint Profile Panel
Description: as §1

5-HT6 = molecular target: T6, 5-HT6 (Homo sapiens, UniProt P50406); settings: Agonist, Receptor, read-out: % of specific inhibition
T6 construct: purchased Eurofins Discovery (Cerep) BioPrint Profile Panel
Description: as §1

A3 = molecular target: T7, A3 (Homo sapiens, UniProt P0DMS8); settings: Agonist, Receptor
T7 construct: purchased Eurofins Discovery (Cerep) BioPrint Profile Panel
T7 sequence (P0DMS8 whole entry): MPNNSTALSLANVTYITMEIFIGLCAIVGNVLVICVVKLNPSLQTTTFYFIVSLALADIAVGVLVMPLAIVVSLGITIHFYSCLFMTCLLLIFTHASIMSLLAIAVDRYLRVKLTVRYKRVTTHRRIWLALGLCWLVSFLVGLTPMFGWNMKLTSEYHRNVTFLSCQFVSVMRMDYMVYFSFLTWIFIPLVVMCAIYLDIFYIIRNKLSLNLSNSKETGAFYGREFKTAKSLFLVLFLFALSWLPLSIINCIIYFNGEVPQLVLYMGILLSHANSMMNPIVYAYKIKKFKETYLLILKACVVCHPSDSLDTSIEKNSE
Description: as §1

AMPA = settings: 10 μM; Agonist; Ion Channel
Description: as §1

AT1 = molecular target: T8, AT1 (Homo sapiens, UniProt P30556); settings: Antagonist, Receptor, read-out: % of specific inhibition
T8 construct: purchased Eurofins Discovery (Cerep) BioPrint Profile Panel
T8 sequence (P30556 whole entry): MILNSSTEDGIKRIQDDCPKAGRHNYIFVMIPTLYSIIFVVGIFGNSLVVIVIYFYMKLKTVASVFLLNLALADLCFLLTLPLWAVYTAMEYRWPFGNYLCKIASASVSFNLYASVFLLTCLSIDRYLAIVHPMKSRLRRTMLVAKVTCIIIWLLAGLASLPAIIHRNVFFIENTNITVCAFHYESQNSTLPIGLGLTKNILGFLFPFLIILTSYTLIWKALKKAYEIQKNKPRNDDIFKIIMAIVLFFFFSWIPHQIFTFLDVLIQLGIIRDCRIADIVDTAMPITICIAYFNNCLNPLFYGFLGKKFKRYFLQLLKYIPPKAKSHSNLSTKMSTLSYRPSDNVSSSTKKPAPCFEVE
Description: as §1

AT2 = molecular target: T9, AT2 (Homo sapiens, UniProt P50052); settings: Agonist, Receptor, read-out: % of specific inhibition
T9 construct: purchased Eurofins Discovery (Cerep) BioPrint Profile Panel
T9 sequence (P50052 whole entry): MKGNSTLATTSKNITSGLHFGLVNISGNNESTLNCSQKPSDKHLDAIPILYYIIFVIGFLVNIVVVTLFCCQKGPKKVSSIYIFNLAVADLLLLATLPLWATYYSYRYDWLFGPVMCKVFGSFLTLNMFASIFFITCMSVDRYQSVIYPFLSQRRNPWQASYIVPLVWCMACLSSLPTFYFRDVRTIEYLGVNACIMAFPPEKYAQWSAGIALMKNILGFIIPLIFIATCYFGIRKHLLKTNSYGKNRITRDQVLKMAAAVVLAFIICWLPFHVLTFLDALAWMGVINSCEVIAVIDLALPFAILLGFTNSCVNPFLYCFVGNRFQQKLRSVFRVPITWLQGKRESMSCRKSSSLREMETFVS
Description: as §1

B2 = molecular target: T10, B2 (Homo sapiens, UniProt P30411); settings: Agonist, Receptor, read-out: % of specific inhibition
T10 construct: purchased Eurofins Discovery (Cerep) BioPrint Profile Panel
Description: as §1

CB1 = molecular target: T11, CB1 (Homo sapiens, UniProt P21554); settings: Agonist, Receptor, read-out: % of specific inhibition
T11 construct: purchased Eurofins Discovery (Cerep) BioPrint Profile Panel
Description: as §1

CCR2 = molecular target: T12, CCR2 (Homo sapiens, UniProt P41597); settings: Agonist, Receptor, read-out: % of specific inhibition
T12 construct: purchased Eurofins Discovery (Cerep) BioPrint Profile Panel
Description: as §1

[1] = system: Ca2+ channel (diltiazem site); settings: 10 μM; Antagonist (diltiazem site); Ion Channel
Description: as §1

Ca2+ channel = settings: 10 μM, Antagonist, Ion Channel
Description: as §1

D3 = molecular target: T13, D3 (Homo sapiens, UniProt P35462); settings: Antagonist, Receptor, read-out: % of specific inhibition
T13 construct: purchased Eurofins Discovery (Cerep) BioPrint Profile Panel
Description: as §1

EP2 = molecular target: T14, EP2 (Homo sapiens, UniProt P43116); settings: Agonist, Receptor, read-out: % of specific inhibition
T14 construct: purchased Eurofins Discovery (Cerep) BioPrint Profile Panel
T14 sequence (P43116 whole entry): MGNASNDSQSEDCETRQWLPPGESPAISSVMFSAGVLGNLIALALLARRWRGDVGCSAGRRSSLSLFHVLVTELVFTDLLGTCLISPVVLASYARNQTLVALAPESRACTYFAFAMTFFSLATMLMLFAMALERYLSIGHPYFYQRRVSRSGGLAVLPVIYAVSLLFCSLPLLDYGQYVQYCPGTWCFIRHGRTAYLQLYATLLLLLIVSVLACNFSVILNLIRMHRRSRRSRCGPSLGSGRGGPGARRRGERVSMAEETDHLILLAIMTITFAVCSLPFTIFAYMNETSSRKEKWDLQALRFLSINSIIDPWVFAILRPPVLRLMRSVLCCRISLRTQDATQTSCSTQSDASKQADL
Description: as §1

FP = molecular target: T15, FP (Homo sapiens, UniProt P43088); settings: Agonist, Receptor, read-out: % of specific inhibition
T15 construct: purchased Eurofins Discovery (Cerep) BioPrint Profile Panel
Description: as §1

H2 = molecular target: T16, H2 (Homo sapiens, UniProt P25021); settings: Antagonist, Receptor, read-out: % of specific inhibition
T16 construct: purchased Eurofins Discovery (Cerep) BioPrint Profile Panel
Description: as §1

H4 = molecular target: T17, H4 (Homo sapiens, UniProt Q9H3N8); settings: Agonist, Receptor, read-out: % of specific inhibition
T17 construct: purchased Eurofins Discovery (Cerep) BioPrint Profile Panel
Description: as §1

M1 = molecular target: T18, M1 (Homo sapiens, UniProt P11229); settings: Antagonist, Receptor, read-out: % of specific inhibition
T18 construct: purchased Eurofins Discovery (Cerep) BioPrint Profile Panel
T18 sequence (P11229 whole entry): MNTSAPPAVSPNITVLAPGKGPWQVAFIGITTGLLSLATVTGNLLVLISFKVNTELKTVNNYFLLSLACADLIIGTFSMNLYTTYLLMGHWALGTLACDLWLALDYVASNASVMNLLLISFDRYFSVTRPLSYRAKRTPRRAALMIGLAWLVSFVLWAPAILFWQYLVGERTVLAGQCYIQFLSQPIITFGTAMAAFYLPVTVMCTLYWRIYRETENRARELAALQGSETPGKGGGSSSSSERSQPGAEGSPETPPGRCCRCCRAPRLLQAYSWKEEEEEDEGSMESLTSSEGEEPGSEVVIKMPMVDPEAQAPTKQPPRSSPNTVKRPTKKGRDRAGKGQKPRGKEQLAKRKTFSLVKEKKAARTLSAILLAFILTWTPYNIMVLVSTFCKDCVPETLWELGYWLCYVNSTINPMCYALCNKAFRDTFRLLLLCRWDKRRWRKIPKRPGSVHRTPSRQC
Description: as §1

M2 = molecular target: T19, M2 (Homo sapiens, UniProt P08172); settings: Antagonist, Receptor, read-out: % of specific inhibition
T19 construct: purchased Eurofins Discovery (Cerep) BioPrint Profile Panel
Description: as §1

M3 = molecular target: T20, M3 (Homo sapiens, UniProt P20309); settings: Antagonist, Receptor, read-out: % of specific inhibition
T20 construct: purchased Eurofins Discovery (Cerep) BioPrint Profile Panel
Description: as §1

MC1 = molecular target: T21, MC1 (Mus musculus, UniProt Q01727); settings: Agonist, Receptor, read-out: % of specific inhibition
T21 construct: purchased Eurofins Discovery (Cerep) BioPrint Profile Panel
Description: as §1

MC4 = molecular target: T22, MC4 (Homo sapiens, UniProt P32245); settings: Agonist, Receptor, read-out: % of specific inhibition
T22 construct: purchased Eurofins Discovery (Cerep) BioPrint Profile Panel
Description: as §1

MCH1 = molecular target: T23, MCH1 (Homo sapiens, UniProt Q99705); settings: Agonist, Receptor, read-out: % of specific inhibition
T23 construct: purchased Eurofins Discovery (Cerep) BioPrint Profile Panel
T23 sequence (Q99705 whole entry): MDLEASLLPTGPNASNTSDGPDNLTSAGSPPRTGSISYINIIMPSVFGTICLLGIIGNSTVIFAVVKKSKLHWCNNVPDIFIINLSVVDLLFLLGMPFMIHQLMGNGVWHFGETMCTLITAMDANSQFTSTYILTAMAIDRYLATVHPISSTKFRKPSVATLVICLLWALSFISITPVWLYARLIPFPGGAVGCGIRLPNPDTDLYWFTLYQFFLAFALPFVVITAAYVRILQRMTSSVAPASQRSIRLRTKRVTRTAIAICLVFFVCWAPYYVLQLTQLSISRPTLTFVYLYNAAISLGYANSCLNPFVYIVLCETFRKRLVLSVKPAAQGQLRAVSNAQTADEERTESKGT
Description: as §1

N neuronal α4β2 = molecular target: T24, N neuronal α4β2 (Homo sapiens, UniProt P17787+P43681); settings: Agonist, Receptor, read-out: % of specific inhibition
T24 construct: purchased Eurofins Discovery (Cerep) BioPrint Profile Panel
Description: as §1

NK1 = molecular target: T25, NK1 (Homo sapiens, UniProt P25103); settings: Agonist, Receptor, read-out: % of specific inhibition
T25 construct: purchased Eurofins Discovery (Cerep) BioPrint Profile Panel
Description: as §1

NMDA = settings: 10 μM; Antagonist; Ion Channel
Description: as §1

PAF = molecular target: T26, PAF (Homo sapiens, UniProt P25105); settings: Agonist, Receptor, read-out: % of specific inhibition
T26 construct: purchased Eurofins Discovery (Cerep) BioPrint Profile Panel
Description: as §1

PCP = settings: 10 μM; Antagonist; Ion Channel
Description: as §1

PPARγ = molecular target: T27, PPARγ (Homo sapiens, UniProt P37231); settings: Agonist, Receptor, read-out: % of specific inhibition
T27 construct: purchased Eurofins Discovery (Cerep) BioPrint Profile Panel
Description: as §1

SKCa channel = settings: 10 μM; Antagonist; Ion Channel
Description: as §1

V1a = molecular target: T28, V1a (Homo sapiens, UniProt P37288); settings: Agonist, Receptor, read-out: % of specific inhibition
T28 construct: purchased Eurofins Discovery (Cerep) BioPrint Profile Panel
Description: as §1

VPAC1 = molecular target: T29, VPAC1 (Homo sapiens, UniProt P32241); settings: Agonist, Receptor, read-out: % of specific inhibition
T29 construct: purchased Eurofins Discovery (Cerep) BioPrint Profile Panel
Description: as §1

Y1 = molecular target: T30, Y1 (Homo sapiens, UniProt P25929); settings: Agonist, Receptor, read-out: % of specific inhibition
T30 construct: purchased Eurofins Discovery (Cerep) BioPrint Profile Panel
Description: as §1

choline transporter = molecular target: T31, choline transporter (Homo sapiens, UniProt Q9GZV3); settings: Antagonist, read-out: % of specific inhibition
T31 construct: purchased Eurofins Discovery (Cerep) BioPrint Profile Panel
Description: as §1

dopamine transporter = molecular target: T32, dopamine transporter (Homo sapiens, UniProt Q01959); settings: Antagonist, read-out: % of specific inhibition
T32 construct: purchased Eurofins Discovery (Cerep) BioPrint Profile Panel
T32 sequence (Q01959 whole entry): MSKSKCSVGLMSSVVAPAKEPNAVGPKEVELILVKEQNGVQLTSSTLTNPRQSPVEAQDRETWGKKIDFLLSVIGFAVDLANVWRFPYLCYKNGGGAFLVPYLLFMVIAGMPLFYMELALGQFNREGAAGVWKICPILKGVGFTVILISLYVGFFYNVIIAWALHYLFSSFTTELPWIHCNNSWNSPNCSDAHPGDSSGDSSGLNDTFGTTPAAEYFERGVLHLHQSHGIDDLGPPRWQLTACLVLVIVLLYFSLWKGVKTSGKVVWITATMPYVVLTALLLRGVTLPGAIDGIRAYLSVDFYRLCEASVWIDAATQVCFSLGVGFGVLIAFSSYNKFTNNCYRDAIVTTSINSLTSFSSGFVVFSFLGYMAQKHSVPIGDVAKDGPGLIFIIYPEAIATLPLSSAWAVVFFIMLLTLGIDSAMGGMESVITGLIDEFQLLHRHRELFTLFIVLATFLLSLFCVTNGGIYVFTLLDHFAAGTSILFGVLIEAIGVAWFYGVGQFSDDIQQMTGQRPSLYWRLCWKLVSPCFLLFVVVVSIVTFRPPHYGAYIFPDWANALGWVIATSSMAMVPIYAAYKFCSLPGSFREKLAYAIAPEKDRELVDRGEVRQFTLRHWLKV
Description: as §1

glucagon = molecular target: T33, glucagon (Homo sapiens, UniProt P47871); settings: Agonist, Receptor, read-out: % of specific inhibition
T33 construct: purchased Eurofins Discovery (Cerep) BioPrint Profile Panel
T33 sequence (P47871 26-477): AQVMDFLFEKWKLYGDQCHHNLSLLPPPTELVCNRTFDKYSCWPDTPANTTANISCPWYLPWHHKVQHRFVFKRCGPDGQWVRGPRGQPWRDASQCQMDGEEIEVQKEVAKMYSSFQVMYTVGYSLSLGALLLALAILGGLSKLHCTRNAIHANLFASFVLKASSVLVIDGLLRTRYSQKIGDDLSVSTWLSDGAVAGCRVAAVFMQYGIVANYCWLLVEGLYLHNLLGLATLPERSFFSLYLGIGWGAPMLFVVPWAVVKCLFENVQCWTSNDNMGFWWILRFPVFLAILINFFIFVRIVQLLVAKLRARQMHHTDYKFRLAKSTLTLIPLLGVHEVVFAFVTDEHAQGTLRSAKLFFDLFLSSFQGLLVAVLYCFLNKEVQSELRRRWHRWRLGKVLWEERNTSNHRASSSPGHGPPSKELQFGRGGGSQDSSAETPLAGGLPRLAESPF
Description: as §1

kainate = settings: 10 μM; Agonist; Ion Channel
Description: as §1

kappa = settings: 10 μM; Agonist; Receptor
Description: as §1

sigma = settings: 10 μM; Agonist; Receptor
Description: as §1

α2A = molecular target: T34, α2A (Homo sapiens, UniProt P08913); settings: Antagonist, Receptor, read-out: % of specific inhibition
T34 construct: purchased Eurofins Discovery (Cerep) BioPrint Profile Panel
Description: as §1

α2C = molecular target: T35, α2C (Homo sapiens, UniProt P18825); settings: Antagonist, Receptor, read-out: % of specific inhibition
T35 construct: purchased Eurofins Discovery (Cerep) BioPrint Profile Panel
Description: as §1

β3 = molecular target: T36, β3 (Homo sapiens, UniProt P13945); settings: Antagonist, Receptor, read-out: % of specific inhibition
T36 construct: purchased Eurofins Discovery (Cerep) BioPrint Profile Panel
T36 sequence (P13945 whole entry): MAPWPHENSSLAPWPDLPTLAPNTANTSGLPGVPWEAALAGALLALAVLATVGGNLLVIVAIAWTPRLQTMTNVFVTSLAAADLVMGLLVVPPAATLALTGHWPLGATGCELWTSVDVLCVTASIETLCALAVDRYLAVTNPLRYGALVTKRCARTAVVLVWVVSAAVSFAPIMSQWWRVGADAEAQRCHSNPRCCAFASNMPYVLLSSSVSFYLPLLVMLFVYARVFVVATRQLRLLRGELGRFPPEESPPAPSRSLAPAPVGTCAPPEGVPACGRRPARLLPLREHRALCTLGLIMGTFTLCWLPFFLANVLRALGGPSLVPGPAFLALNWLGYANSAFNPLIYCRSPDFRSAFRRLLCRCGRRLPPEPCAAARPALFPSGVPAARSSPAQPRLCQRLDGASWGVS
Description: as §1

[2] = read-out: % Inhibition of Control Specific Binding

Molecule O=c1cc(-c2ccccc2)oc2c(O)c(O)ccc12 [7,8-DHF, 7,8-dihydroxyflavone] has an inhibition at 10 µM (5-HT1A) of -26%, an inhibition at 10 µM (5-HT1D) of -8% and an inhibition at 10 µM (5-HT2A) of -4%. For the same molecule, the “% Inhibition of Control Specific Binding” value (5-HT2B; 10 μM) was 50.2%, the inhibition at 10 µM (5-HT2B; [2]) was 50% and the inhibition at 10 µM (5-HT2C) was -4%. For the same molecule, the inhibition at 10 µM (5-HT6) was -3%, the “% Inhibition of Control Specific Binding” value (A3; 10 μM) was 68.2% and the inhibition at 10 µM (A3; [2]) was 68%. For the same molecule, the “% of specific inhibition” value (AMPA) was 7%, the inhibition at 10 µM (AT1) was 24% and the inhibition at 10 µM (AT2) was 6%. The inhibition at 10 µM (B2) was -6%, the inhibition at 10 µM (CB1) was 1% and the inhibition at 10 µM (CCR2) was 4%. For the same molecule, the “% of specific inhibition” value [1] was -15%, the “% of specific inhibition” value (Ca2+ channel; first unspecified Ca2+ channel entry) was -4% and the “% of specific inhibition” value (Ca2+ channel; second unspecified Ca2+ channel entry) was -6%. The inhibition at 10 µM (D3) was 2%, the inhibition at 10 µM (EP2) was 2% and the inhibition at 10 µM (FP) was 6%. It also gave an inhibition at 10 µM (H2) of -37%, an inhibition at 10 µM (H4) of -4% and an inhibition at 10 µM (M1) of -4%. For the same molecule, the inhibition at 10 µM (M2) was -2%, the inhibition at 10 µM (M3) was -7% and the inhibition at 10 µM (MC1) was -5%. The inhibition at 10 µM (MC4) was -5%, the inhibition at 10 µM (MCH1) was -12% and the inhibition at 10 µM (N neuronal α4β2) was 5%. The inhibition at 10 µM (NK1) was 11%, the “% of specific inhibition” value (NMDA) was 11% and the inhibition at 10 µM (PAF) was -20%. The “% of specific inhibition” value (PCP) was -3%, the inhibition at 10 µM (PPARγ) was 21% and the “% of specific inhibition” value (SKCa channel) was 4%. It also gave an inhibition at 10 µM (V1a) of -11%, an inhibition at 10 µM (VPAC1) of -13% and an inhibition at 10 µM (Y1) of 8%. The inhibition at 10 µM (choline transporter) was 5%, the inhibition at 10 µM (dopamine transporter) was 4% and the inhibition at 10 µM (glucagon) was 3%. For the same molecule, the “% of specific inhibition” value (kainate) was 26%, the “% of specific inhibition” value (kappa) was 3% and the “% of specific inhibition” value (sigma) was 3%. It also gave an inhibition at 10 µM (α2A) of -5%, an inhibition at 10 µM (α2C) of 1% and an inhibition at 10 µM (β3) of -25%.
